Experiments:
Test in all cases: radiometric filter-binding kinase assay
[1] = biological target: CSNK2A1 or CSNK2A2 (human) (UniProt P19784+P68400); conditions: ATP 100 µM
MAPKAPK2 (human) = MAPKAPK2 (human) (UniProt P49137); conditions: ATP 100 µM
MAPK8 (human) = MAPK8 (human) (UniProt P45983); conditions: ATP 100 µM
DYRK1A (rat) = conditions: ATP 100 µM, accession and sequence are those of the human protein
[2] = system: RPS6KB1 (human), P23443 [T412E]; conditions: ATP 100 µM
PRKACA or PRKACB (cow) = conditions: accession and sequence are those of the human protein
RPS6KA1 (rat) = conditions: ATP 100 µM, accession and sequence are those of the human protein
RPS6KA5 KD1 KD2 (human) = RPS6KA5 KD1 KD2 (human) (UniProt O75582); conditions: ATP 100 µM
GSK3B (human) = GSK3B (human) (UniProt P49841); conditions: ATP 100 µM
CDK2 CCNA2 (human) = CDK2 CCNA2 (human) (UniProt P24941+P20248); conditions: ATP 100 µM
Sequence of CDK2 CCNA2 (human) (P20248 whole entry, looked up, other chains not shown): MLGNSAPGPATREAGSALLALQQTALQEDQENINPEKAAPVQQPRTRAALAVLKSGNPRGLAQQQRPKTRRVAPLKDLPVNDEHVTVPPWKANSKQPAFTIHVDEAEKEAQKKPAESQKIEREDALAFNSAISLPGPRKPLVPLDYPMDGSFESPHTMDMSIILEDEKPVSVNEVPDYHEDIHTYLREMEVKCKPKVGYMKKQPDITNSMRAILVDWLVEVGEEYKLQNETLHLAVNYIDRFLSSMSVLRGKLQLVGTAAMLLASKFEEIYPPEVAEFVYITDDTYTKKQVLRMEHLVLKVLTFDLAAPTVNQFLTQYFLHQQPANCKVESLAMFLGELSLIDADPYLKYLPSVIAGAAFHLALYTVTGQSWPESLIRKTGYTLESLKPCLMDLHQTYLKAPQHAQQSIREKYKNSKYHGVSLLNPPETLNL

PDPK1 (human) = PDPK1 (human) (UniProt O15530); conditions: ATP 100 µM
ROCK2 (rat) = conditions: ATP 100 µM, accession and sequence are those of the human protein
MAP2K1 (rabbit) = conditions: ATP 100 µM, accession and sequence are those of the human protein
PHKG1 or PHKG2 (rabbit) = conditions: ATP 100 µM, accession and sequence are those of the human protein
RPS6KA1 (human) = RPS6KA1 (human) (UniProt Q15418); conditions: ATP 100 µM
CSK (human) = CSK (human) (UniProt P41240); conditions: ATP 100 µM
Sequence of CSK (human) (P41240 whole entry, looked up): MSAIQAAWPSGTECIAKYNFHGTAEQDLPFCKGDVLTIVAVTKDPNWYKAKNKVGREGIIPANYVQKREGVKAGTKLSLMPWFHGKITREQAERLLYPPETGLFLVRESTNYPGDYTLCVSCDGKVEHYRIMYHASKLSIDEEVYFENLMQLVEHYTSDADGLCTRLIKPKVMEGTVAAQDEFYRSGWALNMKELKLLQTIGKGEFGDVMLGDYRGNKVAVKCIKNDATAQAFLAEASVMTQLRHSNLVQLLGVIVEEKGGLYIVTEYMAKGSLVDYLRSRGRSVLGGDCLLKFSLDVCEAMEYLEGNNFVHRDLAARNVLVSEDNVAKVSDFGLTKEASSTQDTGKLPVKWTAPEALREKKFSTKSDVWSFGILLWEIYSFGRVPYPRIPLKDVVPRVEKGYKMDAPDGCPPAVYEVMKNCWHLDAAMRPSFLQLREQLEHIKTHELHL

MAPK14 (human) = MAPK14 (human) (UniProt Q16539); conditions: ATP 100 µM
Sequence of MAPK14 (human) (Q16539 whole entry, looked up): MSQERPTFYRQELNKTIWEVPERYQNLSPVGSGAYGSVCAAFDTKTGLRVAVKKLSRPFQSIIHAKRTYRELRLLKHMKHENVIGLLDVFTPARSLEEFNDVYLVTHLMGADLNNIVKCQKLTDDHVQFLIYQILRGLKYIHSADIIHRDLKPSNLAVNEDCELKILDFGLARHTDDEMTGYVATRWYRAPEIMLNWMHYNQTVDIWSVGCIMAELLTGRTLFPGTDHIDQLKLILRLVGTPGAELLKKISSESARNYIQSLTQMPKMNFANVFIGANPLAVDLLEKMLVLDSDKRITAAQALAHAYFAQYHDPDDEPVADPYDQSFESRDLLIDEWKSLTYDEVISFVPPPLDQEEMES

LCK (human) = LCK (human) (UniProt P06239); conditions: ATP 100 µM
Sequence of LCK (human) (P06239 whole entry, looked up): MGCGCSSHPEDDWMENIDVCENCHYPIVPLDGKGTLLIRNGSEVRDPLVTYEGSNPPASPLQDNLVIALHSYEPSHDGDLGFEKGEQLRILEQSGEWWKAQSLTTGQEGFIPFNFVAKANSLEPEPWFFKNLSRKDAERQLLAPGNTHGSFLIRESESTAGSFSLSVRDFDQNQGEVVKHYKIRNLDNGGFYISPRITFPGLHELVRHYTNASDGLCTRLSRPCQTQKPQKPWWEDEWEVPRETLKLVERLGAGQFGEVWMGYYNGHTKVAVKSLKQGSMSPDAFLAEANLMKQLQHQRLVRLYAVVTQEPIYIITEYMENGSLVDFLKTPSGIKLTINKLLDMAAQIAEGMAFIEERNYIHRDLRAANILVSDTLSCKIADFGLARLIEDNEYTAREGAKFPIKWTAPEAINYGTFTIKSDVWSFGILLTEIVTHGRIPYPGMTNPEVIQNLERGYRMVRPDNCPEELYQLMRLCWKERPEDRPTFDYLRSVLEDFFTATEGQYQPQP

MAPK13 (human) = MAPK13 (human) (UniProt O15264); conditions: ATP 100 µM
PRKAA1 or PRKAA2 (rat) = conditions: ATP 100 µM, accession and sequence are those of the human protein
[3] = system: SGK1 (human), O00141 [S422D]; conditions: ATP 100 µM
Sequence of SGK1 (human), O00141 [S422D] (O00141 whole entry S422D, looked up): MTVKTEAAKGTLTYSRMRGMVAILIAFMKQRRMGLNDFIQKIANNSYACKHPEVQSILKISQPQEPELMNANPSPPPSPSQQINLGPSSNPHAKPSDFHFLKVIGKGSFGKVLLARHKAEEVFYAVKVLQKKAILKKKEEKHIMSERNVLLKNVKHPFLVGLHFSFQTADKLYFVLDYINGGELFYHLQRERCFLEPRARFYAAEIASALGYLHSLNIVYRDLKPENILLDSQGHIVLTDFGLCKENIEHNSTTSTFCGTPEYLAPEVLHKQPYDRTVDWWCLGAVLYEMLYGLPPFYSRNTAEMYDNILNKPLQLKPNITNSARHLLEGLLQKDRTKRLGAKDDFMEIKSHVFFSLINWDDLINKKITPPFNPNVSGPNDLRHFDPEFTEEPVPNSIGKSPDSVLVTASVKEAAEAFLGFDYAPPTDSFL

MAPK1 (mouse) = conditions: ATP 100 µM, accession and sequence are those of the human protein
MAPK12 (human) = MAPK12 (human) (UniProt P53778); conditions: ATP 100 µM
Sequence of MAPK12 (human) (P53778 whole entry, looked up): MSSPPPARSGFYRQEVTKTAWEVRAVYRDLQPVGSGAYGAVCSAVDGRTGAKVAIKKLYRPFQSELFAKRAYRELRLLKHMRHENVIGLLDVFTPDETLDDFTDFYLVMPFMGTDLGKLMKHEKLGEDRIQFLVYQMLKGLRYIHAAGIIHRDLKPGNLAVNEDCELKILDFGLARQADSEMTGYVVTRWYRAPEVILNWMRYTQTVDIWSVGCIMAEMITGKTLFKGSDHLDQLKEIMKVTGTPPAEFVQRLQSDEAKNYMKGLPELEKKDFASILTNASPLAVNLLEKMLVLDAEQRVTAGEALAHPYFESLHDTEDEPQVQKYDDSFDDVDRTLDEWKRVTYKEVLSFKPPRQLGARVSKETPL

CSNK1A1 (rat) = conditions: ATP 100 µM, accession and sequence are those of the human protein
AKT1 (human) = AKT1 (human) (UniProt P31749); conditions: ATP 100 µM
Sequence of AKT1 (human) (P31749 whole entry, looked up): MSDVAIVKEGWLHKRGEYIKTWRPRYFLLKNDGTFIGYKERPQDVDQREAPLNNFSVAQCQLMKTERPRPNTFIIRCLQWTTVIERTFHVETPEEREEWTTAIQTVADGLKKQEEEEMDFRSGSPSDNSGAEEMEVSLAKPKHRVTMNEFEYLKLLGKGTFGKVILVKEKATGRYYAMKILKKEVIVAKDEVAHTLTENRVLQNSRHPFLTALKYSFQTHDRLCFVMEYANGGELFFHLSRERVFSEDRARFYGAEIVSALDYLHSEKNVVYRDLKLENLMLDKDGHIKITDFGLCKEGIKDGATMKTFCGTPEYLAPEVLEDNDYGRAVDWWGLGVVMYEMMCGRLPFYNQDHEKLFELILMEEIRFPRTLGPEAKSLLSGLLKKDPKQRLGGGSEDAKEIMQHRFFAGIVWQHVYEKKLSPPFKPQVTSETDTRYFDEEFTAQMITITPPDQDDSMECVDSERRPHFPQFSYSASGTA

MAPKAPK5 (human) = MAPKAPK5 (human) (UniProt Q8IW41); conditions: ATP 100 µM
CHEK1 (human) = CHEK1 (human) (UniProt O14757); conditions: ATP 100 µM
Sequence of CHEK1 (human) (O14757 whole entry, looked up): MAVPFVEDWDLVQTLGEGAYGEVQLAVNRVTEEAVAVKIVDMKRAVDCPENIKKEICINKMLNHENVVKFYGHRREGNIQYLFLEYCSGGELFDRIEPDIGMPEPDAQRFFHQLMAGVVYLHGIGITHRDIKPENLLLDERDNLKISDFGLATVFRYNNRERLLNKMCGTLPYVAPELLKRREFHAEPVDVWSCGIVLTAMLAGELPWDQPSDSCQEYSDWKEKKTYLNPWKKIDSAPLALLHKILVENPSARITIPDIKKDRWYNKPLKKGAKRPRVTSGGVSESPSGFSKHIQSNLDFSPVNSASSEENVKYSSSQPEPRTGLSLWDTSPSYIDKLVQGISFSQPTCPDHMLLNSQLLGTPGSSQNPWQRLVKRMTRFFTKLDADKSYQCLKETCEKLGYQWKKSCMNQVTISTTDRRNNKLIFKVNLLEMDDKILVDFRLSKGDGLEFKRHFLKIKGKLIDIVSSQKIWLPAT

MAPK11 (human) = MAPK11 (human) (UniProt Q15759); conditions: ATP 100 µM
Sequence of MAPK11 (human) (Q15759 whole entry, looked up): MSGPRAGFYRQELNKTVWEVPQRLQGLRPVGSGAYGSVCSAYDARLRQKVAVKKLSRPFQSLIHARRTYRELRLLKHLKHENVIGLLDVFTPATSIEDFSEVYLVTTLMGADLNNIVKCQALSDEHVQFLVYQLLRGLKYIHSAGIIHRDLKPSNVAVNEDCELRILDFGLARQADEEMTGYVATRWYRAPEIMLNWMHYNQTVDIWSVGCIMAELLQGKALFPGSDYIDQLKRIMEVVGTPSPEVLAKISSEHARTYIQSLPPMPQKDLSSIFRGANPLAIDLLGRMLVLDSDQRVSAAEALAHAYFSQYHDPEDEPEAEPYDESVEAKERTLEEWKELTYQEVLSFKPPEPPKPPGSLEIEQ

PRKCA (human) = PRKCA (human) (UniProt P17252); conditions: ATP 100 µM
PRKG1 (human) = PRKG1 (human) (UniProt Q13976); conditions: compound 10.0 µM; ATP 100 µM
MYLK (human) = MYLK (human) (UniProt Q15746); conditions: compound 100.0 µM; ATP 100 µM
MYLK2 (human) = MYLK2 (human) (UniProt Q9H1R3); conditions: compound 100.0 µM; ATP 100 µM

Sequence of MAPK8 (human) (P45983 whole entry, looked up): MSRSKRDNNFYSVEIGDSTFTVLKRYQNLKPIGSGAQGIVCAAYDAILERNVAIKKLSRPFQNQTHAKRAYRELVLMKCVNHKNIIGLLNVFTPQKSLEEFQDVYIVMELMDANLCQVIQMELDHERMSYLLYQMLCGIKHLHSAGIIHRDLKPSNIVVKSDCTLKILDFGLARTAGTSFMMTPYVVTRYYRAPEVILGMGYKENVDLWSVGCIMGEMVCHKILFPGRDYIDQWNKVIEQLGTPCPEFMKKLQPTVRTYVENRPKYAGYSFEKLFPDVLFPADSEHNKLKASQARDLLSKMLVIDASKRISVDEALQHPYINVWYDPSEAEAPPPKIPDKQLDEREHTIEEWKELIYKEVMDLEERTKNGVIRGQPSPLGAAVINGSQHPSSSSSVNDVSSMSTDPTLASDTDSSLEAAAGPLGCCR
Sequence of MAPKAPK2 (human) (P49137 whole entry, looked up): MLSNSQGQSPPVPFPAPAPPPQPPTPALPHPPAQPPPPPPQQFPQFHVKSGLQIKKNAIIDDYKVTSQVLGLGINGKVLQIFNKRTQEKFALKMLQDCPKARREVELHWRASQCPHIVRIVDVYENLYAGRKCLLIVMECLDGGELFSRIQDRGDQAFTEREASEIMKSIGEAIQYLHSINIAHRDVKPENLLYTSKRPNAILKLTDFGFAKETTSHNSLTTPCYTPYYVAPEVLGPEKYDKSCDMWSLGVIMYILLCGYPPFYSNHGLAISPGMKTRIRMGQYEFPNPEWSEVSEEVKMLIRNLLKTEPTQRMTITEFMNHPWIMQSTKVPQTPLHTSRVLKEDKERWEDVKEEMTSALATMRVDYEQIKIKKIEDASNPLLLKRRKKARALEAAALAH

`CC(C)[C@H](CO)Nc1nc(Nc2cccc(Cl)c2)c2ncn(C(C)C)c2n1` showed a residual activity ([1]; compound 10.0 µM) of 95%, a residual activity (MAPKAPK2 (human); compound 10.0 µM) of 97% and a residual activity (MAPK8 (human); compound 10.0 µM) of 84%. The IC50 (DYRK1A (rat)) was 300 nM, the residual activity (DYRK1A (rat); compound 10.0 µM) was 6% and the residual activity ([2]; compound 10.0 µM) was 79%. It also gave a residual activity (PRKACA or PRKACB (cow); compound 10.0 µM) of 82%, a residual activity (RPS6KA1 (rat); compound 10.0 µM) of 15% and a residual activity (RPS6KA5 KD1 KD2 (human); compound 10.0 µM) of 88%. It also gave a residual activity (GSK3B (human); compound 10.0 µM) of 84%, a residual activity (CDK2 CCNA2 (human); compound 10.0 µM) of 2% and a residual activity (PDPK1 (human); compound 10.0 µM) of 103%. It also gave a residual activity (ROCK2 (rat); compound 10.0 µM) of 57%, a residual activity (MAP2K1 (rabbit); compound 10.0 µM) of 80% and a residual activity (PHKG1 or PHKG2 (rabbit); compound 10.0 µM) of 36%. For the same compound, the IC50 (RPS6KA1 (human)) was 1490 nM, the residual activity (CSK (human); compound 10.0 µM) was 20% and the residual activity (MAPK14 (human); compound 10.0 µM) was 101%. For the same compound, the residual activity (LCK (human); compound 10.0 µM) was 22%, the residual activity (MAPK13 (human); compound 10.0 µM) was 98% and the residual activity (PRKAA1 or PRKAA2 (rat); compound 10.0 µM) was 59%. For the same compound, the residual activity ([3]; compound 10.0 µM) was 91%, the residual activity (MAPK1 (mouse); compound 10.0 µM) was 26% and the residual activity (MAPK12 (human); compound 10.0 µM) was 105%. It also gave a residual activity (CSNK1A1 (rat); compound 10.0 µM) of 75%, a residual activity (AKT1 (human); compound 10.0 µM) of 88% and a residual activity (MAPKAPK5 (human); compound 10.0 µM) of 76%. For the same compound, the residual activity (CHEK1 (human); compound 10.0 µM) was 78% and the residual activity (MAPK11 (human); compound 10.0 µM) was 117%.
`COC(=O)[C@@]1(OC)C[C@@H]2O[C@]1(C)n1c3ccccc3c3c4c(c5c6ccccc6n2c5c31)C(=O)N(C)C4` gave a residual activity ([1]; compound 10.0 µM) of 98%, a residual activity (MAPKAPK2 (human); compound 10.0 µM) of 71% and a residual activity (MAPK8 (human); compound 10.0 µM) of 99%. For the same compound, the residual activity (DYRK1A (rat); compound 10.0 µM) was 112%, the residual activity ([2]; compound 10.0 µM) was 90% and the residual activity (PRKACA or PRKACB (cow); compound 10.0 µM) was 102%. The residual activity (RPS6KA1 (rat); compound 10.0 µM) was 105%, the residual activity (PRKCA (human); compound 10.0 µM) was 102% and the residual activity (RPS6KA5 KD1 KD2 (human); compound 10.0 µM) was 74%. For the same compound, the residual activity (GSK3B (human); compound 10.0 µM) was 52%, the residual activity (CDK2 CCNA2 (human); compound 10.0 µM) was 94% and the residual activity (PDPK1 (human); compound 10.0 µM) was 114%. The residual activity (ROCK2 (rat); compound 10.0 µM) was 97%, the residual activity (MAP2K1 (rabbit); compound 10.0 µM) was 99% and the residual activity (PHKG1 or PHKG2 (rabbit); compound 10.0 µM) was 99%. For the same compound, the residual activity (CSK (human); compound 10.0 µM) was 93%, the residual activity (MAPK14 (human); compound 10.0 µM) was 102% and the residual activity (LCK (human); compound 10.0 µM) was 94%. The residual activity (MAPK13 (human); compound 10.0 µM) was 105%, the residual activity (PRKAA1 or PRKAA2 (rat); compound 10.0 µM) was 90% and the residual activity (PRKG1 (human)) was 109%. It also gave a residual activity ([3]; compound 10.0 µM) of 72%, a residual activity (MAPK1 (mouse); compound 10.0 µM) of 106% and a residual activity (MAPK12 (human); compound 10.0 µM) of 103%. It also gave a residual activity (CSNK1A1 (rat); compound 10.0 µM) of 83%, a residual activity (AKT1 (human); compound 10.0 µM) of 83% and a residual activity (MAPKAPK5 (human); compound 10.0 µM) of 83%. For the same compound, the residual activity (CHEK1 (human); compound 10.0 µM) was 93% and the residual activity (MAPK11 (human); compound 10.0 µM) was 100%.
`O=S(=O)(c1cccc2c(Cl)cccc12)N1CCCNCC1` gave a residual activity ([1]; compound 100.0 µM) of 69%, a residual activity (MAPKAPK2 (human); compound 100.0 µM) of 106% and a residual activity (MAPK8 (human); compound 100.0 µM) of 102%. The residual activity (DYRK1A (rat); compound 100.0 µM) was 38%, the residual activity ([2]; compound 100.0 µM) was 27% and the residual activity (PRKACA or PRKACB (cow); compound 100.0 µM) was 71%. The residual activity (RPS6KA1 (rat); compound 100.0 µM) was 44%, the residual activity (PRKCA (human); compound 100.0 µM) was 80% and the residual activity (RPS6KA5 KD1 KD2 (human); compound 100.0 µM) was 14%. For the same compound, the residual activity (GSK3B (human); compound 100.0 µM) was 107%, the residual activity (CDK2 CCNA2 (human); compound 100.0 µM) was 75% and the residual activity (PDPK1 (human); compound 100.0 µM) was 113%. It also gave a residual activity (ROCK2 (rat); compound 100.0 µM) of 23%, a residual activity (MAP2K1 (rabbit); compound 100.0 µM) of 95% and a residual activity (PHKG1 or PHKG2 (rabbit); compound 100.0 µM) of 79%. For the same compound, the residual activity (CSK (human); compound 100.0 µM) was 96%, the residual activity (MAPK14 (human); compound 100.0 µM) was 94% and the residual activity (MYLK (human)) was 25%. It also gave a residual activity (MYLK2 (human)) of 54%, a residual activity (LCK (human); compound 100.0 µM) of 116% and a residual activity (MAPK13 (human); compound 100.0 µM) of 86%. The residual activity (PRKAA1 or PRKAA2 (rat); compound 100.0 µM) was 61%, the residual activity ([3]; compound 100.0 µM) was 84% and the residual activity (MAPK1 (mouse); compound 100.0 µM) was 101%. The residual activity (MAPK12 (human); compound 100.0 µM) was 98%, the residual activity (CSNK1A1 (rat); compound 100.0 µM) was 103% and the residual activity (AKT1 (human); compound 100.0 µM) was 76%. It also gave a residual activity (MAPKAPK5 (human); compound 100.0 µM) of 91%, a residual activity (CHEK1 (human); compound 100.0 µM) of 103% and a residual activity (MAPK11 (human); compound 100.0 µM) of 98%.

Source: the kinase profiling compilation of Christmann-Franck et al. (2016)
